Assay results from US20060270655A1, “Combination therapy for treating obesity or maintaining weight loss” (priority 2005, published 2006).

Experiment: Food intake (12 hour spontaneous food intake, rats on high fat diet)
Assay type: in vivo
Settings: male Sprague-Dawley rats
Experimental: The following functional assay was used to determine the effect of an intestinal-acting MTPi, a CB-1 antagonist, and the combination of an intestinal-acting MTPi and a CB-1 antagonist on food intake. The doses of the CB-1 antagonist used in the experiments were 10 mg/kg and 30 mg/kg. The doses of the intestinal-acting MTPi used in the experiments were 3 mg/kg and 10 mg/kg. The different dosages for each active were tested alone and in various combinations with each other as compared to a control (vehicle).
Male Sprague-Dawley rats (275-325 grams) were placed on a high fat diet (Research Diets, 45% kcal from fat). Animals were acclimated to an automated food intake assessment system overnight. Food weight data was collected by computer acquisition. Immediately prior to the start of the dark cycle on the first day, animals were given a PO (i.e., orally by mouth) dose of a gMTP inhibitor (Dirlotapide) or vehicle (self-emulsifying drug delivery system (SEDDS) formulation containing 20% Miglyol 812, 30% Triacetin, 20% Tween 80, and 30% Capmul MCM). On the second day, rats (n=5-10/group) were given a PO dose of a CB-1 antagonist (Compound A) or 0.5% methylcellulose 20 minutes prior to a second dose of Dirlotapide or vehicle. Food Intake was monitored until the following day. Data for each treatment group was compared by ANOVA (analysis of variance).

Row | SMILES | 12 hour Spontaneous Food Intake (10 mg/kg Compound A PO alone (plus SEDDS vehicle)) [grams] | 12 hour Spontaneous Food Intake (30 mg/kg Compound A PO alone (plus SEDDS vehicle)) [grams] | 12 hour Spontaneous Food Intake (3 mg/kg Dirlotapide PO alone (two daily doses, plus 0.5% methylcellulose)) [grams] | 12 hour Spontaneous Food Intake (10 mg/kg Dirlotapide PO alone (two daily doses, plus 0.5% methylcellulose)) [grams]
1 | CCNC1(C(N)=O)CCN(c2ncnc3c2nc(-c2ccccc2Cl)n3-c2ccc(Cl)cc2)CC1 [Compound A, 1-[9-(4-chloro-phenyl)-8-(2-chloro-phenyl)-9H-purin-6-yl]4-ethylamino-piperidine-4-carboxylic acid amide] | 16.3 ± 1.0 | 12.6 ± 1.4 |  | 
2 | CN(Cc1ccccc1)C(=O)[C@@H](NC(=O)c1cc2cc(NC(=O)c3ccccc3-c3ccc(C(F)(F)F)cc3)ccc2n1C)c1ccccc1 [Dirlotapide, (S)-N-{2-[benzyl(methyl)amino]-2-oxo-1-phenylethyl}-1-methyl-5-[4′-(trifluoromethyl)[1,1′-biphenyl]-2-carboxamido]-1H-indole-2 carboxamide] |  |  | 14.6 ± 0.8 | 11.3 ± 0.7
